Entries after “also recorded” stand apart in the source; their conditions may differ. No end group written: not given here.
Experiments:
[1] = test system: V. destructor mites; experiment: Topical varroa assay of venom fractions / purified native peptides; format: in vivo, Varroa destructor; conditions: native peptide / HPLC fraction; Ht1a three cohorts of 5 mites, Gg1a two cohorts of 5 mites
Method: An outline of the project discovery pipeline is presented in Supplementary Fig. 1. To identify varroacidal venom peptides, we screened venoms for activity against V. destructor by topical application. Topical tests were performed in several stages. First, whole venom was tested to determine mortality for V. destructor. Hit venoms were then subjected to several fractionation steps to isolate the active compounds. For the initial venom screen, a panel of 50 arthropod venoms (Table 1) were topically applied to V. destructor mites. Venoms were dissolved in 90% acetonitrile (v/v), and a 10 μg venom aliquot was applied per mite (n = 5 mites per venom). The dorsal plate of V. destructor mites (average mass 0.38 mg) was fixed to adhesive tape (ScotchTM 666 3 M; 19 × 32.9 mm, double sided) on microscope slides (ground edges 90° frosted end, 76 × 26 mm). A Nanoject II (Automatic Injector with Glass Capillaries, Drummond Cat.No. 3-000-205 A) was used for topical application of venom and control (90% acetonitrile) solutions. […] Mite mortality was determined at various time intervals up to 48 h after the treatment using an Olympus stereomicroscope (SZX10/SZX2 Series). […] The percentage of mite mortality for each venom was calculated at 2, 6 and 24 h, and adjusted by correcting for the mortality of the corresponding control group receiving only 90% acetonitrile. […]

[2] = test system: hNaV1.5; experiment: Automated whole-cell patch clamp, hNaV1.5 + β1 in HEK 293 cells; format: cell-based, human; conditions: 3 μM, 50 ms pulse to −20 mV from −90 mV, ECS with 0.1% BSA, at least 2 min
Method: To examine for off-target activity on mammalian ion channels and receptors, we first tested the activity of sHt1a and Gg1a against human NaV channels. Whole-cell patch-clamp recordings were performed on Human Embryonic Kidney (HEK) 293 cells stably expressing human NaV1.4 or NaV1.5 in conjunction with the β1 subunit (SB Drug Discovery, Glasgow, United Kingdom) using a QPatch II automated electrophysiology platform (Sophion Bioscience, Ballerup, Denmark). Whole-cell currents were filtered at 8 kHz and acquired at 25 kHz. The linear leak was corrected by P/4 subtraction (leak potential −90 mV, leak sweep amplitude 10%). Series resistance across recorded cells ranged between 5 and 10 MΩ. The extracellular solution (ECS) consisted of (in mM): 145 NaCl, 4 KCl, 2 CaCl2, 1 MgCl2, 10 HEPES, and 10 glucose, adjusted to pH 7.4 with NaOH and to 305 mOsm/L with sucrose. The intracellular solution (ICS) consisted of (in mM): 140 CsF, 1 EGTA, 5 CsOH, 10 HEPES, and 10 NaCl, adjusted to pH 7.3 with CsOH and 320 mOsm/L with sucrose. Currents were elicited from a holding potential of −90 mV delivered with a 50 ms depolarising pulse to −20 mV every 20 s (0.05 Hz). Peptides were diluted in ECS containing 0.1% BSA and applied to cells for at least 2 min at the concentrations stated. Peak currents were normalised to the buffer control.

[3] = test system: hCaV2.2; experiment: FLIPR Ca2+ fluorescence, KCl/CaCl2-stimulated SH-SY5Y cells; format: cell-based, human; conditions: 10 µM, added 5 min prior to KCl/CaCl2 (90 mM/5 mM)
Method: To further test the selectivity of sHt1a and sGg1a, we examined their activity on hNaV1.2/NaV1.7 and hCaV2.2 channels, as well as the hα3β2/4 nicotinic acetylcholine receptor (nAchR), that are endogenously expressed in the neuroblastoma cell line SH-SY5Y using a high-throughput fluorescent assay as previously described. In brief, SH-SY5Y cells were seeded at a density of 40,000 cells/well in black-walled imaging plates (Corning, Lowell, MA, USA), then incubated for 48 h at 37 °C in a 5% humidified CO2 incubator. On the day of the assay, cells were loaded with Calcium 4 No-wash dye (Molecular Devices) by reconstituting the lyophilised dye in physiological salt solution (PSS in mM: 140 NaCl, 11.5 glucose, 5.9 KCl, 1.4 MgCl2, 1.2 NaH2PO4, 5 NaHCO3, 1.8 CaCl2, 10 HEPES, pH 7.4). Cells were incubated with the dye for 30 min at 37 °C in a 5% humidified CO2 incubator. Gg1a and Ht1a (10 µM) were added 5 min prior to stimulation with either veratridine (50 µM, hNaV1.2/NaV1.7 activator), nicotine (30 µM, hα3β2/4 nAchR activator) or KCl/CaCl2 (90 mM/5 mM, CaV1.3/2.2 activator) Fluorescent responses were recorded using a FLIPR^Penta fluorescent plate reader (Molecular Devices) with excitation at 470–495 nm and emission at 515–575 nm.

Substance	topical varroacidal activity [1]	effect on hNaV1.5 currents [2]	effect on hNaV1.5 currents ([2]; listed as sHt1a)	effect on CaV2.2 [3]	effect on CaV2.2 ([3]; listed as sHt1a)	effect on hNaV1.5 currents ([2]; listed as sGg1a)	effect on CaV2.2 ([3]; listed as sGg1a)
KYCAPRKAVCNTPADCCDKSSRCAYPNYGLGYYLDSEFFGKRKICSWRL (also: bicyclic or more (positions not given here)) [Ht1a, μ-gradutoxin-Ht1a]	contained the varroacidal activity; also recorded: confirmed	inactive	did not significantly affect	inactive	did not significantly affect		
U1-macrothelitoxin-Gg1a	topical varroacidal activity; also recorded: confirmed	inactive		inactive		did not significantly affect	did not significantly affect
